Measurements from patent US8735151B2, “Spontaneously contracting fish cell aggregates, use thereof and method for the production thereof” (Fraunhofer-Gesellschaft zur Foerderung der Angewandten …, priority 2009, dated 2014).

What was measured:
[1] = test system: spontaneously contracting cell aggregates (certain channels in the heart: potassium and calcium channels); assay: Drug tests on the cell aggregates (electrophysiology, intracellular derivation with a sharp electrode); assay type: cell-based, Rainbow trouts (Oncorhynchus mykiss, Walbaum); settings: for reaction of the aggregates on drugs which influence certain channels in the heart: FIG. 10; for recovery of the aggregates after the drug testing: medium change
Method: FIG. 10 Effect of cardiac drugs on the cell aggregates; A: isoproterenol (calcium channel agonist); B: rilmakalim ([…])
The electrophysiology is important for the use of the cell aggregates as a test system in pharmacology. Measurement of the electric activity was performed by means of extracellular measurement via MEA (multi-electrode array) and intracellular measurement via a sharp electrode.
The properties of action potentials and the examination on certain channels (potassium and calcium channels) were carried out with a sharp electrode.
The reaction of the aggregates on drugs which influence certain channels in the heart is of importance for the functionality as a test model. […] Examinations were carried out with isoproterenol (calcium channel agonist) (FIG. 10A) and rilmakalim ([…]).

[2] = test system: spontaneously contracting cell aggregate; assay: Reaction of cell aggregates on the addition of potassium (light microscope, video recordings); assay type: cell-based, Rainbow trouts (Oncorhynchus mykiss, Walbaum)
Method: The reaction of a cell aggregate which had already contracted for 16 days in culture on potassium could be tested in another experiment. It was shown under a light microscope (Axiovert 40C; Zeiss, Germany) with video recordings that the beating frequency of this aggregate increased from 66 beats per minute to 72 beats per minute over a period of 10 minutes. After these 10 minutes, a 1.75 mM potassium chloride solution was added. […] After removing the medium containing the 1.75 mM KCl solution and replacing it with fresh DMEM/20% FBS, the cell aggregate began to beat again after 2 minutes. However, the beating frequency was at first only 16 beats per minute which recovered to the original frequency within the next three days.

SMILES | reaction of the aggregates on drugs which influence certain channels in the heart [1] | recovery of the aggregates after the drug testing [1] | contraction speed of the aggregate after adding the KCl solution ([2]; 1.75 mM potassium chloride solution, aggregate 16 days contracting in culture, for 6 seconds after addition, baseline 66-72 beats per minute) | time after addition until contraction stopped ([2]; 1.75 mM potassium chloride solution, no more contractions observed) [s] | beating frequency at first after medium replacement ([2]; after removal of 1.75 mM KCl, recovered to the original frequency within the next three days) [beats per minute] | time until the cell aggregate began to beat again after replacing medium ([2]; after removing medium containing 1.75 mM KCl and replacing with fresh DMEM/20% FBS) [min]
CC1(C)Oc2ccc(S(=O)(=O)c3ccccc3)cc2[C@@H](N2CCCC2=O)[C@@H]1O [rilmakalim] | in the same manner as the human heart | recover after the drug testing by means of a medium change |  |  |  | 
CC(C)NCC(O)c1ccc(O)c(O)c1 (centres unmarked) [isoproterenol] | in the same manner as the human heart | recover after the drug testing by means of a medium change |  |  |  | 
[Cl-].[K+] [potassium chloride] |  |  | triple the speed as before | 10 | 16 | 2
